The text below walks through data of US11786534B2 (TAIHO PHARMACEUTICAL CO., LTD., priority 2019, dated 2023).

Structures are written as SMILES.

Common to all, as to format: biochemical
Assay [1] concerns the target T1, human EGFR (L858R/T790M/C797S) (Homo sapiens, UniProt P00533, C797S/L858R/T790M).
T1 construct: made in house; host or cells: Sf9 insect cells, baculovirus
As to the kind of experiment: Inhibitory activity against EGFR (L858R/T790M/C797S) kinase. In outline: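 GST-tagged cytoplasmic domain of human EGFR L858R/T790M/C797S, expressed in Sf9 insect cells via baculovirus and glutathione-purified. Kinase reaction run at 0.5 μM ATP final; IC50 (nM) determined per compound.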

Assay [2] addresses T2, human EGFR (d746-750/C797S) (Homo sapiens, UniProt P00533, C797S/DEL746-750).
T2 construct: purchased SignalChem
Kind of assay: Inhibitory activity against EGFR (d746-750/C797S) kinase. The gist of the method: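 Recombinant human EGFR d746-750/C797S in 13.5 mM Tris pH 7.5 with 2 mM DTT and 0.009% Tween-20. Reaction ran 60 min with 14 μM ATP, 20 mM MgCl2 and 12.5 mM MnCl2, stopped by 40 mM EDTA. IC50 in nM.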

Assay [3] deals with T3, human EGFR (L858R/C797S) (Homo sapiens, UniProt P00533, C797S/L858R).
T3 construct: purchased SignalChem
T3 sequence (P00533 25-1210 C797S/L858R): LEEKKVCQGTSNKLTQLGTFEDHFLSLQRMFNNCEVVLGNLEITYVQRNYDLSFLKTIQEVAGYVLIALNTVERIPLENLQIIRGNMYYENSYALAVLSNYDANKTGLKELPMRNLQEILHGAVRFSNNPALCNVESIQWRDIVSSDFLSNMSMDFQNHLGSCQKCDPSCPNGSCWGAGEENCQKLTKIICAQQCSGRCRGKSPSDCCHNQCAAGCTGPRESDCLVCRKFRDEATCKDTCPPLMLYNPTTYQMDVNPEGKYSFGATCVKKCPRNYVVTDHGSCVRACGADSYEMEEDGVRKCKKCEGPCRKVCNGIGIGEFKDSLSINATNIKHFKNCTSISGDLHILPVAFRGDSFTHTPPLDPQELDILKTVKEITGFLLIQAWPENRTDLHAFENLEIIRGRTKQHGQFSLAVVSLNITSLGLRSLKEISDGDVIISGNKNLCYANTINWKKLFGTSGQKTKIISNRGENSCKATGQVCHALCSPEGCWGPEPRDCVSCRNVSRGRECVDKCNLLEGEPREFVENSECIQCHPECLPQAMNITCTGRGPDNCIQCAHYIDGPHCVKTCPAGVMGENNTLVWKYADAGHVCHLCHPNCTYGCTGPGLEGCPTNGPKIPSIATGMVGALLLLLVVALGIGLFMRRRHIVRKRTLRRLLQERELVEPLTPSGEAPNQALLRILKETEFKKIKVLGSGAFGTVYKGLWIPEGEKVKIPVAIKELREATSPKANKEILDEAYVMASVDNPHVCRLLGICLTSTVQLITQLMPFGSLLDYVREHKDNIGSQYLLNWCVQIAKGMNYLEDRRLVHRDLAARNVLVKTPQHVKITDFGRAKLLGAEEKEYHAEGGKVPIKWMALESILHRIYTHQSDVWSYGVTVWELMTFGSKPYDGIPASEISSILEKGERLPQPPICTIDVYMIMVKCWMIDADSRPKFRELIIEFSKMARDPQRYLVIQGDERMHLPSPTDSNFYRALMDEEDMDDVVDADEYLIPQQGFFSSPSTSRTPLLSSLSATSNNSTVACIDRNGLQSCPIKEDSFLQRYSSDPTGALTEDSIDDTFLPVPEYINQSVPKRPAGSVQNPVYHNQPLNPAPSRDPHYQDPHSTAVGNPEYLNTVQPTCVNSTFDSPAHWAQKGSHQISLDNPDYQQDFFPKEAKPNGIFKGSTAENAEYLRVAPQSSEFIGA
As to the kind of experiment: Inhibitory activity against EGFR (L858R/C797S) kinase. The settings on record: Test Example 1, Table 5; ATP 4 μM, 90 minutes. In outline: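 Purified recombinant human EGFR (C797S/L858R) kinase, final ATP 4 μM, 90-minute kinase reaction, otherwise per the EGFR (d746-750/C797S) protocol. IC50 (nM) determined from inhibition data.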

Assay [4] has as its target T4, human EGFR (WT) (Homo sapiens, UniProt P00533).
T4 construct: purchased Carna Biosciences Inc., Japan
Kind of assay: Inhibitory activity against EGFR (WT) kinase. The gist of the method: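 Purified recombinant human wild-type EGFR kinase, with ATP at 1.5 μM final. Compound inhibition of kinase activity read out and fitted to give IC50 (nM).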

Where [5] appears, read: Test Example 1, Table 3, ATP 0.5 μM.
Where [6] appears, read: Test Example 1, Table 4, ATP 14 μM, 60 minutes.
Where [7] appears, read: Test Example 1, Table 6, ATP 1.5 μM.

T4 sequence (P00533 25-1210): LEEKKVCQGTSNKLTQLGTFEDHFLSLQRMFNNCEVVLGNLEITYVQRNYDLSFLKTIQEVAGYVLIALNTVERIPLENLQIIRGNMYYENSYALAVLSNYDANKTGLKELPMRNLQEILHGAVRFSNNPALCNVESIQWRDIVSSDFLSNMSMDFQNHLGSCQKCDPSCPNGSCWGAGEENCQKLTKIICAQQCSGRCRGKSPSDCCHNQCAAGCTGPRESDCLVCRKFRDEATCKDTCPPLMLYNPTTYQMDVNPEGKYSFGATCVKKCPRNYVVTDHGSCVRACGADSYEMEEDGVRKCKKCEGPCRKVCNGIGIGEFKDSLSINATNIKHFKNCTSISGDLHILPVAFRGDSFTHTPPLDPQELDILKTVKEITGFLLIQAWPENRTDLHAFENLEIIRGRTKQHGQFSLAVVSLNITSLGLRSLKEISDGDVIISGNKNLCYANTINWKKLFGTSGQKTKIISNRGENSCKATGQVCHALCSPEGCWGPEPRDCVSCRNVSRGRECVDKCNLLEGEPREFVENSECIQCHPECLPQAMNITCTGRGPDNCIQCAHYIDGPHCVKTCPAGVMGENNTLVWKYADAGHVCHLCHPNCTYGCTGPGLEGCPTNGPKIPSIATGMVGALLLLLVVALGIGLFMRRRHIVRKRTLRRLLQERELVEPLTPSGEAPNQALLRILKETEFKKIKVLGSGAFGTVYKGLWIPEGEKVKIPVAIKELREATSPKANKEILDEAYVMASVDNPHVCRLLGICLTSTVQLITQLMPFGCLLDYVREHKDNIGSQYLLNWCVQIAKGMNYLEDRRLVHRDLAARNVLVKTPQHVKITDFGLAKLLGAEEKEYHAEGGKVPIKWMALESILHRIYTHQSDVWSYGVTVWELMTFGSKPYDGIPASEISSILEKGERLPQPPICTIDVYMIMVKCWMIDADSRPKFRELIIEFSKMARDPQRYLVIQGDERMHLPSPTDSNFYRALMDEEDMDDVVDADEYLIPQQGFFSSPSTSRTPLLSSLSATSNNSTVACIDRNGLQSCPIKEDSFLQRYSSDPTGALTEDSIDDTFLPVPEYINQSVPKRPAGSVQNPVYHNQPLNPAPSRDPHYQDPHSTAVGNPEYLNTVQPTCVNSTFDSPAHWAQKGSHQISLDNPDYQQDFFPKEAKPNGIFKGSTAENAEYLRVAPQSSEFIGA
T1 sequence (P00533 with tags, fused parts or gaps T790M/C797S/L858R): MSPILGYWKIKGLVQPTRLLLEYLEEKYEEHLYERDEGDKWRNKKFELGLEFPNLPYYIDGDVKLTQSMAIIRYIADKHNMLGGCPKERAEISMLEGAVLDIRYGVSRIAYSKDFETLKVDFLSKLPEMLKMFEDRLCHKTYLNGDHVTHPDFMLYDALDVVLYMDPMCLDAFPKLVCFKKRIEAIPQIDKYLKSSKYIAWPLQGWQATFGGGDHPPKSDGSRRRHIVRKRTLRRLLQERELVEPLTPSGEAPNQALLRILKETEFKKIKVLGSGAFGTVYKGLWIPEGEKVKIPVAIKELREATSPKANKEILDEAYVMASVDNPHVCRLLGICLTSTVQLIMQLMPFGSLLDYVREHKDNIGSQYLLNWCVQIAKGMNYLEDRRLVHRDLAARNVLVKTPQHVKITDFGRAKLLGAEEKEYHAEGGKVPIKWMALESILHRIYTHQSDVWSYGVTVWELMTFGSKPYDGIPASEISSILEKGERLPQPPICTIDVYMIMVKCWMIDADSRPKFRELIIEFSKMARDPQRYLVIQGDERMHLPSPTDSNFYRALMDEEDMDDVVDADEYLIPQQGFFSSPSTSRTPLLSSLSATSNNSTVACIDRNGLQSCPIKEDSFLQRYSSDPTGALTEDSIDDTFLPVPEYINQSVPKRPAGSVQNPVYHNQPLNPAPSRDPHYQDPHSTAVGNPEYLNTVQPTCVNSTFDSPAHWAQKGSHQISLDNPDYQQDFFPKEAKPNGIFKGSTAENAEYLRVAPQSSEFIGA
T2 sequence (P00533 with tags, fused parts or gaps DEL746-750/C797S): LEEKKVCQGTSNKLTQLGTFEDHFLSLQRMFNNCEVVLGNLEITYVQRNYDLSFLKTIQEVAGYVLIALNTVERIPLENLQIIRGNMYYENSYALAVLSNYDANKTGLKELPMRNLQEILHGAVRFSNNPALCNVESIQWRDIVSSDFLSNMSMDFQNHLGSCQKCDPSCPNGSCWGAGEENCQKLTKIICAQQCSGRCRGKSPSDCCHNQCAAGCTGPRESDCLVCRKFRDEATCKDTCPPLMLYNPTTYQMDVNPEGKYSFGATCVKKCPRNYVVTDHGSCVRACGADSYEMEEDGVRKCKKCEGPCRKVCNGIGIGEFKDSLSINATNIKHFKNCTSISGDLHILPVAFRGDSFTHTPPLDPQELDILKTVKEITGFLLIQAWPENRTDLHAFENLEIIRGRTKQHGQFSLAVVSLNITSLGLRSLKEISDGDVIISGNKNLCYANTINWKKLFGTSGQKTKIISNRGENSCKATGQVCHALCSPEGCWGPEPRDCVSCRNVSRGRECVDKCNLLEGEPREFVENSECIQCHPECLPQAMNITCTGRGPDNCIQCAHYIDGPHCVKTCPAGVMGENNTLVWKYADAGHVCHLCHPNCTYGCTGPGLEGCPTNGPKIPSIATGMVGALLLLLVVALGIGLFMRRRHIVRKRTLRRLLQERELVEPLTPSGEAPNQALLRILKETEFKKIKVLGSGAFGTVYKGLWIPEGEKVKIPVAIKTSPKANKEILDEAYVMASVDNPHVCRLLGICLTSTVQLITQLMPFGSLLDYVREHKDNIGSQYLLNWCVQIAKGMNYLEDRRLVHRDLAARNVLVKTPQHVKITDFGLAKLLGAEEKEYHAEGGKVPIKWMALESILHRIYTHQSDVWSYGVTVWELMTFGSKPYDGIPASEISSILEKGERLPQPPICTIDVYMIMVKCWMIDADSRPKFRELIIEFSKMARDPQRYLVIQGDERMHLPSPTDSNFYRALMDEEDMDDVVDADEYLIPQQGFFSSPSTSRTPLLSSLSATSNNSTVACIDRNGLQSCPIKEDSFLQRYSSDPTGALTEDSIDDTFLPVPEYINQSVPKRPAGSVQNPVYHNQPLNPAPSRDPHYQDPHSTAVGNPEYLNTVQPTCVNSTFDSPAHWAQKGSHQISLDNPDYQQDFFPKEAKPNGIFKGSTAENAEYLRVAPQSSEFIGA

For `C#Cc1c(-c2cnc3ccccc3c2)c2c(N)ncnc2n1C12CCC(NC(=O)C(F)F)(CC1)C2` [Example 27, N-(4-(4-Amino-6-ethynyl-5-(quinolin-3-yl)-7H-pyrrolo[2,3-d]pyrimidin-7-yl)bicyclo-[2.2.1]heptan-1-yl)-2,2-difluoroacetamide], the IC50 came to 0.47 nM in assay [1] (setting [5]), 1.2 nM in assay [2] (setting [6]), 2.4 nM in assay [3] and 2.4 nM in assay [4] (setting [7]).
In the case of `C#Cc1c(-c2cnc3ccccc3c2)c2c(N)ncnc2n1C12CCC(NC(=O)c3noc(C)n3)(CC1)C2` [Example 36, N-(4-(4-Amino-6-ethynyl-5-(quinolin-3-yl)-7H-pyrrolo[2,3-d]pyrimidin-7-yl)-bicyclo-[2.2.1]heptan-1-yl)-5-methyl-1,2,4-oxadiazole-3-carboxamide], the IC50 in assay [1] (setting [5]) stood at 0.56 nM; in assay [2] (setting [6]) it was 0.61 nM; in assay [3] it was 0.99 nM; in assay [4] (setting [7]) it was 2.6 nM.
For the molecule `C#Cc1c(-c2cnc3ccccc3c2)c2c(N)ncnc2n1C12CCC(NC(=O)c3cncc(F)c3)(CC1)C2` [Example 35, N-(4-(4-Amino-6-ethynyl-5-(quinolin-3-yl)-7H-pyrrolo[2,3-d]pyrimidin-7-yl)-bicyclo-[2.2.1]heptan-1-yl)-5-fluoronicotinamide], the IC50 in assay [1] (setting [5]) is 0.5 nM; in assay [2] (setting [6]), 0.55 nM; in assay [3] it was 0.84 nM; in assay [4] (setting [7]), 1.3 nM.
On to `C#Cc1c(-c2cnc3ccccc3c2)c2c(N)ncnc2n1C12CCC(NC(=O)c3cccnn3)(CC1)C2` [Example 49], for which the IC50 was 0.47 nM in assay [1] (setting [5]), 0.49 nM in assay [2] (setting [6]), 0.63 nM in assay [3] and 0.86 nM in assay [4] (setting [7]).
Turning to `C#Cc1c(-c2cnc3ccccc3c2)c2c(N)ncnc2n1C12CCC(NC(=O)c3nccn3C)(CC1)C2` [Example 23, N-(4-(4-Amino-6-ethynyl-5-(quinolin-3-yl)-7H-pyrrolo[2,3-d]pyrimidin-7-yl)bicyclo-[2.2.1]heptan-1-yl)-1-methyl-1H-imidazole-2-carboxamide], the IC50 in assay [1] (setting [5]) came out at 0.42 nM; in assay [2] (setting [6]), 0.7 nM; in assay [3], 0.84 nM; in assay [4] (setting [7]), 1.4 nM.
For `C#Cc1c(-c2cnc3ccccc3c2)c2c(N)ncnc2n1C12CCC(NC(=O)c3ccno3)(CC1)C2` [Example 44], in that order: 0.32 nM, 0.73 nM, 0.94 nM and 0.8 nM.
For `C#Cc1c(-c2cnc3ccccc3c2)c2c(N)ncnc2n1C12CCC(NC(=O)c3ccc4ncnn4c3)(CC1)C2` [Example 16, N-(4-(4-Amino-6-ethynyl-5-(quinolin-3-yl)-7H-pyrrolo[2,3-d]pyrimidin-7-yl)bicyclo-[2.2.1]heptan-1-yl)-[1.2.4]triazolo[1,5-a]pyrimidin-6-carboxamide], in that order: 0.36 nM, 0.45 nM, 0.49 nM and 0.53 nM.
As to `C#Cc1c(-c2cnc3ccccc3c2)c2c(N)ncnc2n1[C@@H]1CCN(C(=O)C=C)C1` [Comparative Example B, (R)-1-(3-(4-Amino-6-ethynyl-5-(quinolin-3-yl)-7H-pyrrolo[2,3-d]pyrimidin-7-yl) -pyrrolidin-1-yl)-prop-2-en-1-one, reference compound], the IC50 in assay [1] (setting [5]) is 43 nM; in assay [2] (setting [6]), 93 nM; in assay [3] it was 97 nM; in assay [4] (setting [7]), 0.95 nM.
Regarding `C#Cc1c(-c2cnc3ccccc3c2)c2c(N)ncnc2n1C12CCC(NC(=O)c3ccncc3)(CC1)C2` [Example 43], the IC50 in assay [2] (setting [6]) turned out to be 0.73 nM; in assay [3], 0.49 nM; in assay [4] (setting [7]) it was 1.7 nM.
For the molecule `C#Cc1c(-c2cnc3ccccc3c2)c2c(N)ncnc2n1C12CCC(NC(=O)c3cnns3)(CC1)C2` [Example 18, N-(4-(4-Amino-6-ethynyl-5-(quinolin-3-yl)-7H-pyrrolo[2,3-d]pyrimidin-7-yl)bicyclo-[2.2.1]heptan-1-yl)-1,2,3-thiadiazole-5-carboxamide], the 50% inhibitory concentration (IC50) in assay [1] (setting [5]) came out at 0.42 nM; in assay [2] (setting [6]), 0.78 nM; in assay [3] it was 0.67 nM; in assay [4] (setting [7]), 1.4 nM.
Consider `C#Cc1c(-c2cnc3ccccc3c2)c2c(N)ncnc2n1C12CCC(NC(=O)c3ccccc3)(CC1)C2` [Example 1, N-(4-(4-Amino-6-ethynyl-5-(quinolin-3-yl)-7H-pyrrolo[2,3-d]pyrimidin-7-yl)bicyclo-[2.2.1]heptan-1-yl)benzamide], for which the IC50 in assay [1] (setting [5]) was 0.46 nM; in assay [2] (setting [6]) it was 1.8 nM; in assay [3], 2.8 nM; in assay [4] (setting [7]), 2.1 nM.
Take `C#Cc1c(-c2cnc3ccccc3c2)c2c(N)ncnc2n1C12CCC(CNC(=O)c3cnc(C)cn3)(CC1)C2` [Example 14, N-((4-(4-Amino-6-ethynyl-5-(quinolin-3-yl)-7H-pyrrolo[2,3-d]pyrimidin-7-yl)bicyclo-[2.2.1]heptan-1-yl)methyl)-5-methylpyrazine-2-carboxamide]: the values for the IC50 in assay [2] (setting [6]), in assay [3] and in assay [4] (setting [7]) were 0.79 nM, 1.3 nM and 1.7 nM, respectively.
With `C#Cc1c(-c2cnc3ccccc3c2)c2c(N)ncnc2n1C12CCC(NC(=O)[C@@H]3CN(C)CCO3)(CC1)C2` [Example 63, (S)-N-(4-(4-Amino-6-ethynyl-5-(quinolin-3-yl)-7H-pyrrolo[2,3-d]pyrimidin-7-yl) -bicyclo[2.2.1]heptan-1-yl)-4-methylmorpholine-2-carboxamide], the IC50 in assay [1] (Test Example 3, Table 9; same procedures as 2) in Test Example 1) is less than 0.3 nM; in assay [2] (Test Example 3, Table 10; same procedures as 3) in Test Example 1), 0.51 nM; in assay [4] (Test Example 3, Table 12; same procedures as 5) in Test Example 1), 2.8 nM.
For the molecule `C#Cc1c(-c2cnc3ccccc3c2)c2c(N)ncnc2n1C12CCC(NC(=O)c3cnc(C)cn3)(CC1)C2` [Example 37, N-(4-(4-Amino-6-ethynyl-5-(quinolin-3-yl)-7H-pyrrolo[2,3-d]pyrimidin-7-yl)-bicyclo-[2.2.1]heptan-1-yl)-5-methylpyrazine-2-carboxamide], the IC50 in assay [1] (setting [5]) worked out at 0.52 nM; in assay [2] (setting [6]), 0.5 nM; in assay [3] it was 0.69 nM; in assay [4] (setting [7]), 0.92 nM.
`C#Cc1c(-c2cnc3ccccc3c2)c2c(N)ncnc2n1C12CCC(CNC(=O)c3ccnn3C)(CC1)C2` [Example 13, N-((4-(4-Amino-6-ethynyl-5-(quinolin-3-yl)-7H-pyrrolo[2,3-d]pyrimidin-7-yl)bicyclo-[2.2.1]heptan-1-yl)methyl)-1-methyl-1H-pyrazole-5-carboxamide]: the results for the IC50 in assay [2] (setting [6]), in assay [3] and in assay [4] (setting [7]) were 0.67 nM, 0.69 nM and 0.61 nM, respectively.
In the case of `C#Cc1c(-c2cnc3ccccc3c2)c2c(N)ncnc2n1C12CCC(NC(=O)c3ccnn3C3CC3)(CC1)C2` [Example 20, N-(4-(4-Amino-6-ethynyl-5-(quinolin-3-yl)-7H-pyrrolo[2,3-d]pyrimidin-7-yl)bicyclo-[2.2.1]heptan-1-yl)-1-cyclopropyl-1H-pyrazole-5-carboxamide], the IC50 is 0.44 nM in assay [1] (setting [5]), 0.68 nM in assay [2] (setting [6]), 1.2 nM in assay [3] and 2.1 nM in assay [4] (setting [7]).
The matching figures for `C=CC(=O)N1CC[C@@H](n2cc(-c3cnc4ccccc4c3)c3c(N)ncnc32)C1` [Comparative Example A, (R)-1-(3(4-Amino-5-(quinolin-3-yl)-7H-pyrrolo[2,3-d]pyrimidin-7-yl)pyrrolidin-1-yl) -prop-2-en-1-one, reference compound]: 102 nM, 264 nM, 187 nM and 1.6 nM.
For the molecule `C#Cc1c(-c2cnc3ccccc3c2)c2c(N)ncnc2n1C12CCC(NC(=O)c3ccnnc3)(CC1)C2` [Example 3, N-(4-(4-Amino-6-ethynyl-5-(quinolin-3-yl)-7H-pyrrolo[2,3-d]pyrimidin-7-yl)bicyclo-[2.2.1]heptan-1-yl)pyridazine-4-carboxamide], the IC50 was less than 0.3 nM in assay [1] (setting [5]), less than 0.3 nM in assay [2] (setting [6]), 0.37 nM in assay [3] and 0.45 nM in assay [4] (setting [7]).
Consider `C#Cc1c(-c2cnc3ccccc3c2)c2c(N)ncnc2n1C12CCC(NC(=O)c3cccnc3)(CC1)C2` [Example 45], for which the figures for the half-inhibitory concentration (IC50) in assay [2] (setting [6]), in assay [3] and in assay [4] (setting [7]) were 0.67 nM, 0.53 nM and 1.9 nM, respectively.
On to `C#Cc1c(-c2cnc3ccccc3c2)c2c(N)ncnc2n1C12CCC(NC(=O)c3cncnc3)(CC1)C2` [Example 2, N-(4-(4-Amino-6-ethynyl-5-(quinolin-3-yl)-7H-pyrrolo[2,3-d]pyrimidin-7-yl)bicyclo-[2.2.1]heptan-1-yl)pyrimidine-5-carboxamide], for which the IC50 in assay [1] (setting [5]) is less than 0.3 nM; in assay [3], 0.46 nM; in assay [4] (setting [7]), 0.52 nM.
`C#Cc1c(-c2cnc3ccccc3c2)c2c(N)ncnc2n1C12CCC(N3CCOCC3)(CC1)C2` [Example 9, 6-Ethynyl-7-(4-morpholinobicyclo[2.2.1]heptan-1-yl)-5-(quinolin-3-yl)-7H-pyrrolo[2,3-d]pyrimidine-4-amine]: the results for the IC50 in assay [2] (setting [6]), in assay [3] and in assay [4] (setting [7]) were 0.36 nM, 1 nM and 2.6 nM, respectively.
